Results on 4 molecules are retold here after ChEMBL document CHEMBL1151825, “Schisanwilsonenes A-C, anti-HBV Carotane sesquiterpenoids from the fruits of Schisandra wilsoniana” (J Nat Prod, 2009).

SMILES strings stand for the structures. Some results are limits rather than exact numbers.

The subject of data set [1] is Hepatitis B virus. Put plainly: Antiviral activity against HBV infected in human HepG2 2.2.15 cells assessed as inhibition of HBeAg secretion at 200 ug/mL after 9 days by ELISA. The format is functional. The conditions noted are these: HepG2, 216 h. (In an ELISA, binding on a coated surface is turned into a signal by an enzyme label.)
Data set [2] relates to Hepatitis B virus. Put plainly: Antiviral activity against HBV infected in human HepG2 2.2.15 cells assessed as inhibition of HBsAg secretion at 200 ug/mL after 9 days by ELISA. Format: functional. To be noted: HepG2, 216 h.
The subject of data set [3] is Hepatitis B virus. Put plainly: Antiviral activity against HBV infected in human HepG2 2.2.15 cells assessed as inhibition of HBeAg secretion at 50 ug/mL after 9 days by ELISA. To be noted: HepG2, 216 h. The format is functional.
Data set [4] concerns Hepatitis B virus. Put plainly: Antiviral activity against HBV infected in human HepG2 2.2.15 cells assessed as inhibition of HBsAg secretion at 50 ug/mL after 9 days by ELISA. The conditions noted are these: HepG2, 216 h. The format is functional.
Data set [5] has as its system Hepatitis B virus. Put plainly: Antiviral activity against HBV infected in human HepG2 2.2.15 cells assessed as inhibition of HBsAg secretion at 25 ug/mL after 9 days by ELISA. Format: functional. The conditions noted are these: HepG2, 216 h.
Data set [6] is described as follows: Cytotoxicity of human HepG2(2.2.15) cells assessed as growth inhibition at 200 ug/mL by MTT assay. The format is cell-based.
Data set [7] is described as follows: Cytotoxicity of human HepG2(2.2.15) cells assessed as growth inhibition at 100 ug/mL by MTT assay. Format: cell-based. In general terms: Tetrazolium assays rely on reduction of a dye to a coloured formazan, in cell work by metabolically active cells.
Data set [8] concerns Hepatitis B virus. Put plainly: Antiviral activity against HBV infected in human HepG2 2.2.15 cells assessed as inhibition of HBeAg secretion at 25 ug/mL after 9 days by ELISA. Format: functional. To be noted: HepG2, 216 h.
Data set [9] has as its system Hepatitis B virus. Put plainly: Antiviral activity against HBV infected in human HepG2 2.2.15 cells assessed as inhibition of HBeAg secretion at 100 ug/mL after 9 days by ELISA. To be noted: HepG2, 216 h. The format is functional.
For data set [10], the system named is Hepatitis B virus. The experiment in a line: Antiviral activity against HBV infected in human HepG2 2.2.15 cells assessed as inhibition of HBsAg secretion at 100 ug/mL after 9 days by ELISA. Format: functional. The conditions noted are these: HepG2, 216 h.

Turning to `Nc1ccn([C@@H]2CS[C@H](CO)O2)c(=O)n1` [LAMIVUDINE], the inhibition at 200 µg/mL in the data set on Hepatitis B virus [1] amounted to 34.8%; in the data set with Hepatitis B virus [2], 28.6%.
For `CC(C)(O)[C@@H]1CC[C@@]2(C)CCC(CO)=CC[C@H]12` (relative stereo) [SCHISANWILSONENE A], the inhibition at 50 µg/mL came to 28.9% with Hepatitis B virus [3] and 76.5% in the data set on Hepatitis B virus [4]. Besides, the results for the inhibition at 25 µg/mL in the data set with Hepatitis B virus [5] and in the data set with Hepatitis B virus [8] were 27.5% and 11.3%, respectively. Also, the inhibition at 200 ug/mL in data set [6] is at least 25%. Also, the inhibition at 100 ug/mL in data set [7] was at least 25%.
On to `CC(C)(O)[C@@H]1CC[C@@]2(C)CCC(C=O)=CC[C@H]12` (relative stereo) [SCHISANWILSONENE C], for which the inhibition at 100 µg/mL in the data set with Hepatitis B virus [9] was 6.1%; in the data set with Hepatitis B virus [10] it was 11.7%. The figures for the inhibition at 50 µg/mL in the data set with Hepatitis B virus [3] and in the data set on Hepatitis B virus [4] were 1.4% and 5.5%, respectively. The inhibition at 200 µg/mL in the data set with Hepatitis B virus [1] came to 8.8%; in the data set on Hepatitis B virus [2] it was 28.3%. Also, the inhibition at 25 µg/mL came to 0% with Hepatitis B virus [5] and 1.1% with Hepatitis B virus [8].
For the molecule `CC(=O)OCC1=CC[C@@H]2[C@H](C(C)(C)O)CC[C@@]2(C)CC1` (relative stereo) [SCHISANWILSONENE B], the inhibition at 100 µg/mL was 0% with Hepatitis B virus [9] and 58.6% in the data set on Hepatitis B virus [10]. Besides, the inhibition at 50 µg/mL worked out at 0% in the data set on Hepatitis B virus [3] and 20.5% in the data set with Hepatitis B virus [4]. In addition, the inhibition at 25 µg/mL is 5.6% in the data set on Hepatitis B virus [5] and 0% in the data set with Hepatitis B virus [8]. Also, the inhibition at 200 ug/mL in [6] is at least 25%.

As a reminder, the inhibition is the share of the control response that was lost under treatment.
